Data reported in ChEMBL document CHEMBL1154550, “Isolation of psammaplin A 11'-sulfate and bisaprasin 11'-sulfate from the marine sponge Aplysinella rhax” (J Nat Prod, 2000).
Calls of active or inactive are those of the source. The calls are words filed in the database; no cut-off is given here.

Experiments:
Adenosine receptor A1 = biological target: T1, Adenosine receptor A1 (Rattus norvegicus, UniProt P25099); assay: Displacement of […] from adenosine A1 receptor in rat brain; type: tissue-based
T1 sequence (P25099 whole entry): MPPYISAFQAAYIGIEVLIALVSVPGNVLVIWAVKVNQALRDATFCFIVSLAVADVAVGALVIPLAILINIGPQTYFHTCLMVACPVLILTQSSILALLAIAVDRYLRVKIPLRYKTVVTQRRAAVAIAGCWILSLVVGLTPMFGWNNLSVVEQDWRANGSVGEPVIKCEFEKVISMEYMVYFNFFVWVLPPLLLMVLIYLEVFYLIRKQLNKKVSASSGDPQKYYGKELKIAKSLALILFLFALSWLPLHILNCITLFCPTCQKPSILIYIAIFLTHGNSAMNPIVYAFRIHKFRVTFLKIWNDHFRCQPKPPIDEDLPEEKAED

[1] = biological target: T2, Adenosine receptor A1 (Rattus norvegicus) (UniProt P25099); assay: Displacement of […] from adenosine A1 receptor in rat brain up to 2.2 mM; type: tissue-based
T2 sequence (whole entry): T1 sequence (P25099 whole entry)

IC50 (Adenosine receptor A1) | Activity [1] | Compound
20 µM |  | O=C(NCCSSCCNC(=O)/C(Cc1ccc(O)c(Br)c1)=N/O)/C(Cc1ccc(O)c(Br)c1)=N/O [PSAMMAPLIN A]
90 µM |  | O=C(NCCSSCCNC(=O)/C(Cc1ccc(OS(=O)(=O)O)c(Br)c1)=N/O)/C(Cc1ccc(O)c(Br)c1)=N/O
 | inactive | O=C(NCCSSCCNC(=O)/C(Cc1cc(Br)c(O)c(-c2cc(C/C(=N\O)C(=O)NCCSSCCNC(=O)/C(Cc3ccc(OS(=O)(=O)O)c(Br)c3)=N/O)cc(Br)c2O)c1)=N/O)/C(Cc1ccc(O)c(Br)c1)=N/O
